The source of these data is US7173004B2, “Macrocyclic isoquinoline peptide inhibitors of hepatitis C virus” (Bristol-Myers Squibb Company, priority 2003, dated 2007).

This assay deals with HCV replicon (HCV 1b-377-neo replicon cells, Huh7). Briefly: HCV replicon cell-based FRET assay. The following applies: Hepatitis C virus, Huh-7. On the procedure: HCV Replion assays were utilized in the present invention, and were prepared, conducted and validated as follows:
An HCV replicon whole cell system was established as described by Lohmann V, Korner F, Koch J, Herian U, Theilmann L, Bartenschlager R., Science 285(5424): 110–3 (1999). This system enabled us to evaluate the effects of our HCV Protease compounds on HCV RNA replication. Briefly, using the HCV strain 1B sequence described in the Lohmann paper (Assession number: AJ238799), an HCV cDNA was synthesized by Operon Technologies, Inc. (Alameda, Calif.), and the full-length replicon was then assembled in plasmid pGem9zf(+) (Promega, Madison, Wis.) using standard molecular biology techniques. The replicon consists of (i) the HCV 5′ UTR fused to the first 12 amino acids of the capsid protein, (ii) the neomycin phosphotransferase gene (neo), (iii) the IRES from encephalomyocarditis virus (EMCV), and (iv) HCV NS3 to NS5B genes and the HCV 3′ UTR. Plasmid DNAs were linearized with ScaI and RNA transcripts were synthesized in vitro using the T7 MegaScript transcription kit (Ambion, Austin, Tex.) according to manufacturer's directions. To generate cell lines, 4×10^6 Huh-7 cells (kindly provided by R. Bartenschlager and available from Health Science Research Resources Bank, Japan Health Sciences Foundation) were electroporated (GenePulser System, Bio-Rad) with 10 microgram(“μg”) of RNA transcript and plated into 100-mm dishes. After 24 h, selective media containing 1.0 milligrams/milliliter (“mg/ml”) G418 was added and media was changed every 3 to 5 days. Approximately 4 weeks after electroporation, small colonies were visible which were isolated and expanded for further analysis. These cell lines were maintained at 37° C., 5% CO2, 100% relative humidity in DMEM (Cat# 11965-084) Gibco-BRL, Rockville, Md., with 10% heat inactivated calf serum (Sigma), 10 ml of 100× penicillin/streptomycin (Cat# 15140-122) Gibco-BRL, Rockville, Md., Geneticin (Cat# 10131-027) Gibco-BRL, Rockville, Md. at 1 mg/ml. One of the cell lines (deposited as ATCC Accession No. PTA-4583 in the American Type Culture Collection) which had approximately 3,000 copies of HCV replicon RNA/cell was used for development of the assay (HCV 1b-377-neo replicon cells).
Huh7 cells, constitutively expressing the HCV replicon, were grown in Dulbecco's Modified Eagle Media (DMEM) containing 10% Fetal calf serum (FCS) and 1 mg/ml G418 (Gibco-BRL). Cells were seeded the night before (1.5×10^4 cells/well) in 96-well tissue-culture sterile plates. Compound and no compound controls were prepared in DMEM containing 4% FCS, 1:100 Penicillin/Streptomysin, 1:100 L-glutamine and 5% DMSO in the dilution plate (0.5% DMSO final concentration in the assay). Compound/DMSO mixes were added to the cells and incubated for 4 days at 37° C. After 4 days, cells were first assessed for cytotoxicity using alamar Blue (Trek Diagnotstic Systems) for a CC50 reading. The toxicity of compound (CC50) was determined by adding 1/10th volume of alamar Blue to the media incubating the cells. After 4 hr, the fluorescence signal from each well was read, with an excitation wavelength at 530 nm and an emission wavelength of 580 nm, using the Cytofluor Series 4000 (Perspective Biosystems). Plates were then rinsed thoroughly with Phosphate-Buffered Saline (PBS) (3 times 150 μl). The cells were lysed with 25 μl of a lysis assay reagent containing an HCV protease substrate (5× cell Luciferase cell culture lysis reagent (Promega #E153A) diluted to 1× with distilled water, NaCl added to 150 mM final, the FRET peptide diluted to 10 μM final from a 2 mM stock in 100% DMSO). The HCV protease substrate (FRET peptide; AnaSpec, Inc. cat #22991, described by Taliani et al. in Anal. Biochem. 240(2):60–67 (1996)) contains a fluorescence donor, EDANS, near one end of the peptide and an acceptor, DABCYL, near the other end. […]
In general, EC50 refers to the concentration needed to bring the measured effect to its halfway point. Higher therefore signals a need for much substance. For `COc1ccc2c(OC3CC4C(=O)NC5(C(=O)O)CC5C=CCCCCCC(NC(=O)OC(C)(C)C)C(=O)N4C3)nccc2c1` (centres unmarked) [Compound 17A], the half-maximal effective concentration (EC50) was in the range of 50 to 500 nM.
Next, `COc1ccc2c(O[C@@H]3C[C@H]4C(=O)N[C@]5(C(=O)NS(=O)(=O)C6CC6)C[C@H]5/C=C\CCCCC[C@H](NC(=O)OC(C)(C)C)C(=O)N4C3)nccc2c1` [Compound 17B, [4-Cyclopropanesulfonylaminocarbonyl-18-(6-methoxy-isoquinolin-1-yloxy)-2,15-dioxo-3,16-diaza-tricyclo[14.3.0.0^4,6]nonadec-7-en-14-yl]-carbamic acid tert-butyl ester]: less than 50 nM.
Consider `COc1ccc2c(OC3CC4C(=O)NC5(C(=O)O)CC5C=CCCCSCC(NC(=O)OC(C)(C)C)C(=O)N4C3)nccc2c1` (centres unmarked) [Compound 18A, 14-tert-Butoxycarbonylamino-18-(6-methoxy-isoquinolin-1-yloxy)-2,15-dioxo-12-thia-3,16-diaza-tricyclo[14.3.0.0^4,6]nonadec-7-ene-4-carboxylic acid], for which the half-maximal effective concentration (EC50) lay in the range of 500 to 5000 nM.
The molecule `COc1ccc2c(OC3C[C@H]4C(=O)N[C@]5(C(=O)NS(=O)(=O)C6CC6)C[C@H]5/C=C\CCCSC[C@H](NC(=O)OC(C)(C)C)C(=O)N4C3)nccc2c1` (some centres unmarked) [Compound 18B, [4-Cyclopropanesulfonylaminocarbonyl-18-(6-methoxy-isoquinolin-1-yloxy)-2,15-dioxo-12-thia-3,16-diaza-tricyclo[14.3.0.0^4,6]nonadec-7-en-14-yl]-carbamic acid tert-butyl ester] showed a concentration giving a half-maximal response (EC50) of less than 50 nM.
Next, `COc1ccc2c(O[C@@H]3C[C@H]4C(=O)N[C@]5(C(=O)NS(=O)(=O)C6CC6)C[C@H]5/C=C\CCCS(=O)(=O)C[C@H](NC(=O)OC(C)(C)C)C(=O)N4C3)nccc2c1` [Compound 19]: 50 to 500 nM.
`O=C(NC1CCCCCC=CC2CC2(C(=O)NS(=O)(=O)C2CC2)NC(=O)C2CC(Oc3nccc4ccccc34)CN2C1=O)OC1CCCC1` (centres unmarked) [Compound 20] showed an EC50 of less than 50 nM.
Next, `COc1c(NC2CCCCCC=CC3CC3(C(=O)NS(=O)(=O)C3CC3)NC(=O)C3CC(Oc4nccc5ccccc45)CN3C2=O)c(=O)c1=O` (centres unmarked) [Compound 21]: 50 to 500 nM; `O=C(CC1CC1)NC1CCCCCC=CC2CC2(C(=O)NS(=O)(=O)C2CC2)NC(=O)C2CC(Oc3nccc4ccccc34)CN2C1=O` (centres unmarked) [Compound 22]: less than 50 nM; `CCCNC(=O)NC1CCCCCC=CC2CC2(C(=O)NS(=O)(=O)C2CC2)NC(=O)C2CC(Oc3nccc4ccccc34)CN2C1=O` (centres unmarked) [Compound 23]: less than 50 nM.
The molecule `COCC(=O)NC1CCCCCC=CC2CC2(C(=O)NS(=O)(=O)C2CC2)NC(=O)C2CC(Oc3nccc4ccccc34)CN2C1=O` (centres unmarked) [Compound 24] had a half-maximal effective concentration (EC50) of 50 to 500 nM.
Next, `CS(=O)(=O)NC1CCCCCC=CC2CC2(C(=O)NS(=O)(=O)C2CC2)NC(=O)C2CC(Oc3nccc4ccccc34)CN2C1=O` (centres unmarked) [Compound 25]: 500 to 5000 nM.
With `CC(=O)NC1CCCCCC=CC2CC2(C(=O)NS(=O)(=O)C2CC2)NC(=O)C2CC(Oc3nccc4ccccc34)CN2C1=O` (centres unmarked) [Compound 26], the concentration giving a half-maximal response (EC50) was in the range of 50 to 500 nM.
Next, `COc1ccc2c(OC3CC4C(=O)NC5(C(=O)O)CC5C=CCOCCCC(NC(=O)OC(C)(C)C)C(=O)N4C3)nccc2c1` (centres unmarked) [Compound 27, 14-tert-Butoxycarbonylamino-18-(6-methoxy-isoquinolin-1-yloxy)-2,15-dioxo-10-oxa-3,16-diaza-tricyclo[14.3.0.0^4,6]nonadec-7-ene-4-carboxylic acid]: 500 to 5000 nM; `COc1ccc2c(OC3CC4C(=O)NC5(C(=O)NS(=O)(=O)C6(C)CC6)CC5C=CCOCCCC(NC(=O)OC(C)(C)C)C(=O)N4C3)nccc2c1` (centres unmarked) [Compound 29]: less than 50 nM; `CCC1(S(=O)(=O)NC(=O)C23CC2C=CCOCCCC(NC(=O)OC(C)(C)C)C(=O)N2CC(Oc4nccc5cc(OC)ccc45)CC2C(=O)N3)CC1` (centres unmarked) [Compound 30]: less than 50 nM.
For `COc1ccc2c(OC3CC4C(=O)NC5(C(=O)NS(=O)(=O)C6CC6)CC5C=CCOCCCC(NC(=O)OC(C)C)C(=O)N4C3)nccc2c1` (centres unmarked) [Compound 31], the concentration giving a half-maximal response (EC50) was less than 50 nM.
`COc1ccc2c(OC3CC4C(=O)NC5(C(=O)NS(=O)(=O)C6CC6)CC5C=CCOCCCC(NC(=O)OCC(C)(C)C)C(=O)N4C3)nccc2c1` (centres unmarked) [Compound 32] returned a concentration giving a half-maximal response (EC50) of less than 50 nM.
Next, `COc1ccc2c(OC3CC4C(=O)NC5(C(=O)NS(=O)(=O)C6CC6)CC5C=CCOCCCC(NC(=O)NC5CCCC5)C(=O)N4C3)nccc2c1` (centres unmarked) [Compound 33]: less than 50 nM; `COc1ccc2c(OC3CC4C(=O)NC5(C(=O)NS(=O)(=O)C6CC6)CC5C=CCOCCCC(NC(=O)NC(C)(C)C)C(=O)N4C3)nccc2c1` (centres unmarked) [Compound 34]: less than 50 nM; `COc1ccc2c(OC3CC4C(=O)NC5(C(=O)NS(=O)(=O)C6(C)CC6)CC5C=CCOCCCC(NC(=O)OC(C)C)C(=O)N4C3)nccc2c1` (centres unmarked) [Compound 35]: less than 50 nM.
As for `COc1ccc2c(OC3CC4C(=O)NC5(C(=O)NS(=O)(=O)C6(C)CC6)CC5C=CCOCCCC(NC(=O)NC5CCCC5)C(=O)N4C3)nccc2c1` (centres unmarked) [Compound 36], the figure is less than 50 nM; as for `CCC1(S(=O)(=O)NC(=O)C23CC2C=CCOCCCC(NC(=O)OC(C)C)C(=O)N2CC(Oc4nccc5cc(OC)ccc45)CC2C(=O)N3)CC1` (centres unmarked) [Compound 37], less than 50 nM.
With `CCC1(S(=O)(=O)NC(=O)C23CC2C=CCOCCCC(NC(=O)NC2CCCC2)C(=O)N2CC(Oc4nccc5cc(OC)ccc45)CC2C(=O)N3)CC1` (centres unmarked) [Compound 38], the half-maximal effective concentration (EC50) is less than 50 nM.
As for `COc1ccc2c(OC3CC4C(=O)NC5(C(=O)NS(=O)(=O)C6CC6)CC5C=CCOCCCC(NC(=O)OC(C)(C)C(F)(F)F)C(=O)N4C3)nccc2c1` (centres unmarked) [Compound 39], the figure is less than 50 nM; as for `COc1ccc2c(OC3CC4C(=O)NC5(C(=O)NS(=O)(=O)C6(C)CC6)CC5C=CCCCSCC(NC(=O)OC(C)C)C(=O)N4C3)nccc2c1` (centres unmarked) [Compound 41], less than 50 nM; as for `COc1ccc2c(OC3CC4C(=O)NC5(C(=O)NS(=O)(=O)C6(C)CC6)CC5C=CCCCSCC(NC(=O)OCC(C)(C)C)C(=O)N4C3)nccc2c1` (centres unmarked) [Compound 42], less than 50 nM.
On to `COc1ccc2c(OC3CC4C(=O)NC5(C(=O)NS(=O)(=O)C6(C)CC6)CC5C=CCCCSCC(NC(=O)NC5CCCC5)C(=O)N4C3)nccc2c1` (centres unmarked) [Compound 43], for which the EC50 was less than 50 nM.
The molecule `CCC1(S(=O)(=O)NC(=O)C23CC2C=CCCCSCC(NC(=O)OC(C)C)C(=O)N2CC(Oc4nccc5cc(OC)ccc45)CC2C(=O)N3)CC1` (centres unmarked) [Compound 44] gave a concentration for a half-maximal effect (EC50) of less than 50 nM.
Next, `CCC1(S(=O)(=O)NC(=O)C23CC2C=CCCCSCC(NC(=O)OCC(C)(C)C)C(=O)N2CC(Oc4nccc5cc(OC)ccc45)CC2C(=O)N3)CC1` (centres unmarked) [Compound 45]: less than 50 nM.
Next, `CCC1(S(=O)(=O)NC(=O)C23CC2C=CCCCSCC(NC(=O)NC2CCCC2)C(=O)N2CC(Oc4nccc5cc(OC)ccc45)CC2C(=O)N3)CC1` (centres unmarked) [Compound 46]: less than 50 nM.
As to `CCC1(S(=O)(=O)NC(=O)C23CC2C=CCCC[S+]([O-])CC(NC(=O)OC(C)(C)C)C(=O)N2CC(Oc4nccc5cc(OC)ccc45)CC2C(=O)N3)CC1` (centres unmarked) [Compound 47], the concentration for a half-maximal effect (EC50) was less than 50 nM.
As for `CCC1(S(=O)(=O)NC(=O)C23CC2C=CCCCS(=O)(=O)CC(NC(=O)OC(C)(C)C)C(=O)N2CC(Oc4nccc5cc(OC)ccc45)CC2C(=O)N3)CC1` (centres unmarked) [Compound 48], the figure is 50 to 500 nM.
